Test results published in ChEMBL document CHEMBL5678810.

Target: T1, Mitogen-activated protein kinase kinase kinase 19 (Homo sapiens) (UniProt Q56UN5)
T1 sequence (whole entry): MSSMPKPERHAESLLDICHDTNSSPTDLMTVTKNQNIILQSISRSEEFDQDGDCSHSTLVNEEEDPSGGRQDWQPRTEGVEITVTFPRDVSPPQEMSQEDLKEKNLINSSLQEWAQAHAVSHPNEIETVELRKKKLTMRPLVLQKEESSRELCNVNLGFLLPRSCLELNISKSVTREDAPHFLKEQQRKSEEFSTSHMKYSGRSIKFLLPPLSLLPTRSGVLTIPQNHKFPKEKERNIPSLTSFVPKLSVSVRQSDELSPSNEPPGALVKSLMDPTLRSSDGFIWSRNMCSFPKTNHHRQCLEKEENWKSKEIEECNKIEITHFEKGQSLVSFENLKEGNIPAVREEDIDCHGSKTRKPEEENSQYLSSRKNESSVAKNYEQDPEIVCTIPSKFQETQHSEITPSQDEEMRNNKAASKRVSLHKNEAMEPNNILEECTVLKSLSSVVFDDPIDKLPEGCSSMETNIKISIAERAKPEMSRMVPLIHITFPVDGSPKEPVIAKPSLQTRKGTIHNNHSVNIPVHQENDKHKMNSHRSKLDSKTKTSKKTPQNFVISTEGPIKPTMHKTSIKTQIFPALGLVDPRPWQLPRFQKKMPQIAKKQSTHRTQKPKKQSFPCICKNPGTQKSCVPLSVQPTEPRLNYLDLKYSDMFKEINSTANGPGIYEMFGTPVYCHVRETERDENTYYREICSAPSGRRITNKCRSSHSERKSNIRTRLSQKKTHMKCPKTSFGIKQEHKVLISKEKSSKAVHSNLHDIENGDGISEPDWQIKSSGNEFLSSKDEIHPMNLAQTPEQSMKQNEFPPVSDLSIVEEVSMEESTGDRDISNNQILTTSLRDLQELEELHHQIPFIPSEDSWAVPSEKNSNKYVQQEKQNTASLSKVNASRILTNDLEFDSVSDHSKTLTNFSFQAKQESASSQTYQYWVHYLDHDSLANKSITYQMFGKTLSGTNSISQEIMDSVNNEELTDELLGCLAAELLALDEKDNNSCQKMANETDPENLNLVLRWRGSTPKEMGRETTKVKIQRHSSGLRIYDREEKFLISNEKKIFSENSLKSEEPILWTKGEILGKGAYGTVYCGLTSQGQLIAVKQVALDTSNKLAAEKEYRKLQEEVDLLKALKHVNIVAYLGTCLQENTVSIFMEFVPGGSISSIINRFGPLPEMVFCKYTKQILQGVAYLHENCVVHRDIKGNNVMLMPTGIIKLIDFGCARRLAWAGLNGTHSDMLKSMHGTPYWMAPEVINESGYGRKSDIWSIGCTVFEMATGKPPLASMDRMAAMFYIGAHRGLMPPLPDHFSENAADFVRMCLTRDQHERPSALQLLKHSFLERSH
Experiment: Inhibition of T7 bacteriophage fused human YSK4 at 10 uM by KINOMEscan analysis relative to control

SMILES | inhibition
COc1cc(N2CCC(N3CCN(C)CC3)CC2)ccc1Nc1ncc2c(n1)N(C)c1ccccc1C(=O)N2C | 99%
CCOc1cc(C(=O)N2CCC(N3CCN(C)CC3)CC2)ccc1Nc1ncc2c(n1)N(C1CCCC1)c1ccccc1C(=O)N2C | 100%
COc1cc(C(=O)N2CCC(N3CCN(C)CC3)CC2)ccc1Nc1ncc2c(n1)N(C1CCCC1)c1ccccc1C(=O)N2C | 100%

Target: Serine/threonine-protein kinase 4 (Homo sapiens) (UniProt Q13043)
Experiment: Inhibition of T7 bacteriophage fused human MST1 at 10 uM by KINOMEscan analysis relative to control; values are per cent of control

Chain of Serine/threonine-protein kinase 4 (Homo sapiens) (Q13043 whole entry, looked up, the tested form may be a part): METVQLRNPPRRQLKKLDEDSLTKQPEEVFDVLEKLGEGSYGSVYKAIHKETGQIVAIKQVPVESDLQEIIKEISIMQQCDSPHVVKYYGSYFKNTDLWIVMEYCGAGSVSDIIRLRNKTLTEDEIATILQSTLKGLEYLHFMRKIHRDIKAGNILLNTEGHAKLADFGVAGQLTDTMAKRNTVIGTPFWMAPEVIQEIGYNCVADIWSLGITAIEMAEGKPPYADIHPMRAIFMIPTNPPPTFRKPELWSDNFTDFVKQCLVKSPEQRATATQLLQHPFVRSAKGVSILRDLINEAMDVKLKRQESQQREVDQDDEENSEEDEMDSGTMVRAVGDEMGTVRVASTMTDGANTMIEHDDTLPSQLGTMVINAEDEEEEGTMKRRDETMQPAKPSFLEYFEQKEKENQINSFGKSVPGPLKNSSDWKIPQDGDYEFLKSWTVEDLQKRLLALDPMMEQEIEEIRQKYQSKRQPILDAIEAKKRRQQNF

SMILES | residual activity
COc1cc(N2CCC(N3CCN(C)CC3)CC2)ccc1Nc1ncc2c(n1)N(C)c1ccccc1C(=O)N2C | 100%
CCOc1cc(C(=O)N2CCC(N3CCN(C)CC3)CC2)ccc1Nc1ncc2c(n1)N(C1CCCC1)c1ccccc1C(=O)N2C | 100%
COc1cc(C(=O)N2CCC(N3CCN(C)CC3)CC2)ccc1Nc1ncc2c(n1)N(C1CCCC1)c1ccccc1C(=O)N2C | 100%

Target: Serine/threonine-protein kinase 32A (Homo sapiens) (UniProt Q8WU08)
Experiment: Inhibition of T7 bacteriophage fused human YANK1 at 10 uM by KINOMEscan analysis relative to control

Chain of Serine/threonine-protein kinase 32A (Homo sapiens) (Q8WU08 whole entry, the tested form may be a part): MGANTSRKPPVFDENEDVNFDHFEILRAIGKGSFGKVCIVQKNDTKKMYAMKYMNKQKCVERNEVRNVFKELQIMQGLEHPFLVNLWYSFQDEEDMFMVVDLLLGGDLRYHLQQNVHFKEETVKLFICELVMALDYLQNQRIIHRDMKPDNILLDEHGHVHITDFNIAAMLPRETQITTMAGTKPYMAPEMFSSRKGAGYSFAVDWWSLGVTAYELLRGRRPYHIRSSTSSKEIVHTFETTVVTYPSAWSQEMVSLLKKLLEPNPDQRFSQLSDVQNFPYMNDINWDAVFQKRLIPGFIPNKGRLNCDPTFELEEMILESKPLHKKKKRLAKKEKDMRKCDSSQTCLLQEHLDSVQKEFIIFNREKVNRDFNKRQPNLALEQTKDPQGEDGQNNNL

SMILES | inhibition
COc1cc(N2CCC(N3CCN(C)CC3)CC2)ccc1Nc1ncc2c(n1)N(C)c1ccccc1C(=O)N2C | 100%
CCOc1cc(C(=O)N2CCC(N3CCN(C)CC3)CC2)ccc1Nc1ncc2c(n1)N(C1CCCC1)c1ccccc1C(=O)N2C | 100%
COc1cc(C(=O)N2CCC(N3CCN(C)CC3)CC2)ccc1Nc1ncc2c(n1)N(C1CCCC1)c1ccccc1C(=O)N2C | 100%

Target: Mitogen-activated protein kinase kinase kinase 20 (Homo sapiens) (UniProt Q9NYL2)
Experiment: Inhibition of T7 bacteriophage fused human ZAK at 10 uM by KINOMEscan analysis relative to control

Chain of Mitogen-activated protein kinase kinase kinase 20 (Homo sapiens) (Q9NYL2 2-800 limits assumed): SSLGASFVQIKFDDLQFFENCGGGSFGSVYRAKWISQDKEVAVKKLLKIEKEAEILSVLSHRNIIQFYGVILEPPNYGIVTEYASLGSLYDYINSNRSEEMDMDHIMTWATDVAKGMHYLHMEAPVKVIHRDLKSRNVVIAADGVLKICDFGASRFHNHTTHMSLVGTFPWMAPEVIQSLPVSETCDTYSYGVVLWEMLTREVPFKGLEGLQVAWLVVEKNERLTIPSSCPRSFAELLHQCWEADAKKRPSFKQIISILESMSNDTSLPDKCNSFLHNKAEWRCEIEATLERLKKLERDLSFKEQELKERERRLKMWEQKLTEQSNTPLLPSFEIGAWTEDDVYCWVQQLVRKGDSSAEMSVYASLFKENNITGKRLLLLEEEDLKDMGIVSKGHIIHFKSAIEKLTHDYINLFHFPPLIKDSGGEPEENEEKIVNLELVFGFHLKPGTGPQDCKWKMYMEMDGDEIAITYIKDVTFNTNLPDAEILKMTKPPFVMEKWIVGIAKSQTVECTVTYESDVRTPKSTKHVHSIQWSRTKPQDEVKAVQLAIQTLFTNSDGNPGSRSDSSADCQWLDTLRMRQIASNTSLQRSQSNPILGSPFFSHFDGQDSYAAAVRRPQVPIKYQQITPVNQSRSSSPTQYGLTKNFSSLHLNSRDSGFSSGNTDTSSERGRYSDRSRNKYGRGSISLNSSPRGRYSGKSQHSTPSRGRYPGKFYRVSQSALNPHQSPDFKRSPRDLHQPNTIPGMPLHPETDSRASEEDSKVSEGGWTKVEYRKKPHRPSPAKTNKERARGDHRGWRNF

SMILES | inhibition
COc1cc(N2CCC(N3CCN(C)CC3)CC2)ccc1Nc1ncc2c(n1)N(C)c1ccccc1C(=O)N2C | 99%
CCOc1cc(C(=O)N2CCC(N3CCN(C)CC3)CC2)ccc1Nc1ncc2c(n1)N(C1CCCC1)c1ccccc1C(=O)N2C | 100%
COc1cc(C(=O)N2CCC(N3CCN(C)CC3)CC2)ccc1Nc1ncc2c(n1)N(C1CCCC1)c1ccccc1C(=O)N2C | 100%

Target: T2, Tyrosine-protein kinase receptor TYRO3 (Homo sapiens) (UniProt Q06418)
T2 sequence (whole entry): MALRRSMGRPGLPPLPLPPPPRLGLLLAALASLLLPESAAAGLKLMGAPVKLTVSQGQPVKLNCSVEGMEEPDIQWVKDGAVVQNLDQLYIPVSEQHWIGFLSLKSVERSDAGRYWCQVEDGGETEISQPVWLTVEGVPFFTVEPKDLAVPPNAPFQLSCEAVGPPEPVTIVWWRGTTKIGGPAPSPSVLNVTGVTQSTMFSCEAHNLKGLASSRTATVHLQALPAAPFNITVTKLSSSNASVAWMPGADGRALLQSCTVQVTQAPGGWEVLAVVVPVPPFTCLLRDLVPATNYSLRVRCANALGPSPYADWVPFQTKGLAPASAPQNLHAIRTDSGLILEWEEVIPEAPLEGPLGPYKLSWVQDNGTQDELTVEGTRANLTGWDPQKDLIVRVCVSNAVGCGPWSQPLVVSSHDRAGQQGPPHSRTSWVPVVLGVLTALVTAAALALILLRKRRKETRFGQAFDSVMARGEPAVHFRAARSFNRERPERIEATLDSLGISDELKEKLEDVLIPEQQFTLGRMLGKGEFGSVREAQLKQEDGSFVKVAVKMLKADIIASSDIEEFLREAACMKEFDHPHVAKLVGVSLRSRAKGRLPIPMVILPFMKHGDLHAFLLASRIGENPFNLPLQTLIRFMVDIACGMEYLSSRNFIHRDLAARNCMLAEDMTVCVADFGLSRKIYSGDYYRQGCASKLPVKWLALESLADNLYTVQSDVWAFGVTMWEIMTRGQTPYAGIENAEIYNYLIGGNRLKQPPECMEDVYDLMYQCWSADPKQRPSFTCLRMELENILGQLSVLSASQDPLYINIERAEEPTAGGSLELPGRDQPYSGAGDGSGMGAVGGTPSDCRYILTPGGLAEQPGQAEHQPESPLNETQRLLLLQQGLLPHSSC
Experiment: Inhibition of T7 bacteriophage fused human TYRO3 at 10 uM by KINOMEscan analysis relative to control

SMILES | inhibition
COc1cc(N2CCC(N3CCN(C)CC3)CC2)ccc1Nc1ncc2c(n1)N(C)c1ccccc1C(=O)N2C | 100%
CCOc1cc(C(=O)N2CCC(N3CCN(C)CC3)CC2)ccc1Nc1ncc2c(n1)N(C1CCCC1)c1ccccc1C(=O)N2C | 100%
COc1cc(C(=O)N2CCC(N3CCN(C)CC3)CC2)ccc1Nc1ncc2c(n1)N(C1CCCC1)c1ccccc1C(=O)N2C | 100%

Target: T3, Serine/threonine-protein kinase ULK3 (Homo sapiens) (UniProt Q6PHR2)
T3 sequence (whole entry): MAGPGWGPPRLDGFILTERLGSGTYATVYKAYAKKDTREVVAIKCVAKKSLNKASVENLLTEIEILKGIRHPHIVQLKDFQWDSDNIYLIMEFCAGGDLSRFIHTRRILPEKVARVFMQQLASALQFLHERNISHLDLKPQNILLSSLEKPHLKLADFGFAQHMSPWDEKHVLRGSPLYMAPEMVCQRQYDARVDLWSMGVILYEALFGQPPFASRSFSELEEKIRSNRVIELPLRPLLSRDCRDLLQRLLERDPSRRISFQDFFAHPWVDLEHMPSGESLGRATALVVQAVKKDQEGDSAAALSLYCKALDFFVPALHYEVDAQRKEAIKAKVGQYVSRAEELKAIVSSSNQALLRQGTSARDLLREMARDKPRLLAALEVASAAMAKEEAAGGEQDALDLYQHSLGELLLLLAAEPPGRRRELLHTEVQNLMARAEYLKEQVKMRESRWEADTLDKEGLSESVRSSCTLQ
Experiment: Inhibition of T7 bacteriophage fused human ULK3 at 10 uM by KINOMEscan analysis relative to control

SMILES | inhibition
COc1cc(N2CCC(N3CCN(C)CC3)CC2)ccc1Nc1ncc2c(n1)N(C)c1ccccc1C(=O)N2C | 100%
CCOc1cc(C(=O)N2CCC(N3CCN(C)CC3)CC2)ccc1Nc1ncc2c(n1)N(C1CCCC1)c1ccccc1C(=O)N2C | 100%
COc1cc(C(=O)N2CCC(N3CCN(C)CC3)CC2)ccc1Nc1ncc2c(n1)N(C1CCCC1)c1ccccc1C(=O)N2C | 100%
